Series [1] concerns D1 -like (Rabbit Splenic Artery). In words: D1-like activity in the Rabbit Splenic Artery (RSA) test. As to conditions: agonist activity at the peak of the effect; contracted with U46619 0.1 μM. The method, then: Arterial rings were prepared according to Semeraro et al., Naunyn. Schmied. Arch. Pharmacol., 1990, 342, 539.
The arterial preparations were contracted with U46619 (9,11-di-deoxy-11α,9α-epoxy-methanoprostaglandin F2α) at the submaximal concentration 0.1 μM.
(§1) The tested compounds were cumulatively administered.
(§2) Ref. A was used as reference substance.
(§3) Agonist activity evaluated at the peak of the effect and expressed as potency ratio (EC50 of Ref. A/EC50 of tested compound) is reported in table 2.

For series [2], the target named is T1, D2 -like (Rabbit Ear Artery) (Oryctolagus cuniculus, UniProt G1T1Q0).
T1 construct: the central ear artery was dissected into 3 mm long rings; from tissue; host or cells: rabbit central ear artery rings (male New Zealand rabbits), electrically stimulated
The series is described as follows: D2-like activity in the Rabbit Ear Artery (REA) test. Details: species or system New Zealand rabbit. The settings on record: agonist activity at the peak of the effect; electrically stimulated. As to the method: Arterial rings were prepared according to the method described by Steinsland et al., Science, 1978, 443, 199, modified as follows. Male New Zealand rabbits weighing 2.5-3 Kg were sacrificed by intravenous injection of an excess of pentobarbital sodium and exsanguinated. The two ears were taken away and the central ear artery was dissected into 3 mm long rings.
These preparations were set up in a 25 ml organ bath containing Krebs solution (mM/l): NaCl 118, KCl 4.7, CaCl2 2.5, MgSO4 1.2, NaHCO3 25, KH2 PO4 1.2, glucose 11.1, equilibrated with 95% 02 -5% CO2 and maintained at 35°±1° C.
Krebs solution was medicated with EDTA (10 μM) to prevent cathecolamine oxydation, desipramine (0.1 μM) and corticosterone (30 μM), to block neuronal and extraneuronal cathecolamine uptake. The preparations were electrically stimulated (10 Hz, 1 msec, 40-80 mA, 500 msec duration) at 5 minutes intervals.
as §1, §2, §3

Series [3] concerns spontaneously hypertensive rats. In words: In vivo antihypertensive activity, i.v., spontaneously hypertensive rats. Details: species or system rat (spontaneously hypertensive, Charles River). The settings on record: 30 nmol/kg i.v. bolus; recorded over 4 hours; basal MBP 190-200 mmHg; Ref. A n = 6, Compound 22 n = 7. As to the method: Male spontaneously hypertensive rats (Charles River) more than 14 weeks old were used.
Catheters were inserted into the right carotid artery and into the left giugular vein under barbituric anesthesia.
The animals were allowed to recover overnight.
The tested compounds were administered into the left giugular vein by bolus injection.
Control animals were injected with an equal volume of vehicle. The induced effect was continuously recorded over a period of 4 hours.
Basal values of Mean Blood Pressure (MBP) were in the range of 190-200 mmHg.
The antihypertensive activity of compound 22 expressed as MBP reduction compared with the antihypertensive activity of Ref. A is reported in the following table.

For series [4] the following is noted: Fitton and Benfield, Drugs 1990; cited from earlier work.
The test system of the next series is dopaminergic receptors. As to conditions: Fitton and Benfield, Drugs 1990; cited from earlier work.
A further series concerns the target D2 receptor (Rattus norvegicus, UniProt P61169). The series is described as follows: biochemical. Type of series: binding, rat (Sprague-Dawley). As to conditions: [3H]-domperidone 0.3 nM, rat striated membranes, 0.01% BSA, 37° C., 30 minutes; read-out: Affinity [K1 (nM)] towards D2 receptor. The method, then:
(§4) The tissue were homogenized in 50 mM Tris/HCl buffer at pH 7.4 (1:100 w/v).
(§5) The homogenate was centrifuged and the pellet resuspended, recentrifuged and resuspended again in 50 mM Tris/HCl buffer at pH 7.4 containing 120 mM NaCl, 5 mM KCl, 2 mM CaCl2 and 1 mM MgCl2.
Furthermore, bovine serum albumine (BSA) (0.01%) was added.
The mixture was incubated at 37° C. for 30 minutes for each concentration of tested compounds.

The target in a further series is D1 receptor (Rattus norvegicus, UniProt P18901). The series is described as follows: biochemical. Type of series: binding, rat (Sprague-Dawley). As to conditions: [3H]-SCH23390 0.2 nM, rat striated membranes, pH 7.4, 37° C., 20 minutes; read-out: Affinity [K1 (nM)] towards D1 receptor. The method, then:
as §4, §5
The mixture was incubated with different concentrations of the tested compounds at 37° C. for 20 minutes, filtered under vacuum through Whatman GF/C filters and then washed 4 times with 5 ml of 50 mM Tris/HCl buffer (pH 7.4) cooled with ice.

Molecules are shown by their SMILES.

Chain of D1 receptor (P18901 whole entry): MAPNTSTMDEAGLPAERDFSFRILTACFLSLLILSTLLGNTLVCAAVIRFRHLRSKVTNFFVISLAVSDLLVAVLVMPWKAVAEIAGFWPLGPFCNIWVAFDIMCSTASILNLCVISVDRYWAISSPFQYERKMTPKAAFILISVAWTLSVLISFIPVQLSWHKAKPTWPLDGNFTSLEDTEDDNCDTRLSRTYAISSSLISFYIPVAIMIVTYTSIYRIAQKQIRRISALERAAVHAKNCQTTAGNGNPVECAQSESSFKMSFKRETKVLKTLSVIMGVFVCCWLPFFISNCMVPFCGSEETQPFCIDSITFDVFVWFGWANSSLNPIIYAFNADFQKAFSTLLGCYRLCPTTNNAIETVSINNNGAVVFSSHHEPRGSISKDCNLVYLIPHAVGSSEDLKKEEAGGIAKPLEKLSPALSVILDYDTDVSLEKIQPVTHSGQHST
T1 sequence (G1T1Q0 1-443): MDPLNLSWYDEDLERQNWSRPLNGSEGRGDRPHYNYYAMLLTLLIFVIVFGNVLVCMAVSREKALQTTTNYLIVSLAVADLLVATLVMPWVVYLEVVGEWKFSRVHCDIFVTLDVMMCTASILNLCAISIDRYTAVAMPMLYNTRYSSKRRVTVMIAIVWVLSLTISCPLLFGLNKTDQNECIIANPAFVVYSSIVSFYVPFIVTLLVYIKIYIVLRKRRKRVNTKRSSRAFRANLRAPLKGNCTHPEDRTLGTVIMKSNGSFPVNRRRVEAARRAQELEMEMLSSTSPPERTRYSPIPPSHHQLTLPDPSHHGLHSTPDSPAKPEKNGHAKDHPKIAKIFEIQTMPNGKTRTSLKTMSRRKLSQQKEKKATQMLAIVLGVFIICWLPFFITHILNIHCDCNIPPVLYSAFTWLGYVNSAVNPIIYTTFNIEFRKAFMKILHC
Chain of D2 receptor (P61169 whole entry): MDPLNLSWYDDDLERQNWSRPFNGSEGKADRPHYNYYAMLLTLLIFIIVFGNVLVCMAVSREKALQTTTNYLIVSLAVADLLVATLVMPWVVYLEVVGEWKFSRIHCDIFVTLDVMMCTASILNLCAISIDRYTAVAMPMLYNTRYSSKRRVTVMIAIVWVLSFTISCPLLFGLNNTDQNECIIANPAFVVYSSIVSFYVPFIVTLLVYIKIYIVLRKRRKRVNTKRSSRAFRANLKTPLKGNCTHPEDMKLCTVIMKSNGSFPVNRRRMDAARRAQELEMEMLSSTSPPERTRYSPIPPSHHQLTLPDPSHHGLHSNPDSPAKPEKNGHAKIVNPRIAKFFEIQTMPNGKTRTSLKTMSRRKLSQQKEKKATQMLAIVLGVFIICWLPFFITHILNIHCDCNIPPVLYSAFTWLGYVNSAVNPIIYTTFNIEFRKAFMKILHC

Take `Br.Br.CCCN(CCCCCCNCCc1ccc(S(C)(=O)=O)cc1)[C@H]1CCc2c(ccc(O)c2O)C1` [Compound 22, (S)-N-propyl-N-[6-[2-(4-methylsulphonylphenyl)ethylamino]hexyl]-5,6-dihydroxy-1,2,3,4-tetrahydro-2-naphthylamine dihydrobromide]: in series [1], the “D1 -like (RSA) potency ratio (EC50 of Ref. A/EC50 of tested compound)” value is on record as 14. Also, in series [2], the “D2 -like (REA) potency ratio (EC50 of Ref. A/EC50 of tested compound)” value came to 3. The “MBP reduction, mean ± S.E.” value in series [3] is on record as -61.7 ± 5.7 mmHg.

For the molecule `NCCc1ccc(O)c(O)c1` [Dopamine], the “absorption when administered by oral route” value in series [4] was “not absorbed when administered by oral route”.

For `Oc1ccc(CCNCCCCCCNCCc2ccccc2)cc1O` [Dopexamine, dopexamine], the “absorption when administered by oral route” value in series [4] is “not absorbed when administered by oral route”. Further, the “agonist activity at dopaminergic receptors compared with dopamine” value in the series on dopaminergic receptors is reported as “less active than dopamine”.

Take `CCCN(CCCCCCNCCc1ccccc1OC)[C@H]1CCc2c(ccc(O)c2O)C1.Cl.Cl` [Ref. A, (S)-N-propyl-N-[6-[2-(2-methoxyphenyl)ethylamino]hexyl]-5,6-dihydroxy-1,2,3,4-tetrahydro-2-naphthylamine dihydrochloride, reference compound]: the “D1 -like (RSA) potency ratio (EC50 of Ref. A/EC50 of tested compound)” value in series [1] was found to be 1. For the same molecule, the Ki was determined as 0.8 nM on D2 receptor and 158 nM at D1 receptor. In addition, the “MBP reduction, mean ± S.E.” value in series [3] was -25 ± 1.1 mmHg.

(Values after US5674909A, “Derivatives of 2-amino-1,2,3,4-tetrahydronaphthalene active on the cardiovascular system” (Zambon Group, priority 1994, dated 1997).)
